Reference: BindingDB's records for doi:10.1016/j.bmcl.2006.05.062 (AstraZeneca, 2006)

Assay: Inhibition of COX1-mediated platelet aggregation

IC50: 40 nM
Structure (SMILES): COc1ccc2c(c1)c(CC(=O)O)c(C)n2-c1ccnc2cc(Cl)ccc12 [2-(1-(7-chloroquinolin-4-yl)-5-methoxy-2-methyl-1H-indol-3-yl)acetic acid]
